According to publication PMC9822135, “Chemical Constituents from the Leaves of Ligustrum robustum and Their Bioactivities” (Molecules, 2023):
Like-named read-outs stand apart in the source and are kept apart here.

Tests used:
α-amylase = α-amylase inhibitory activity assay (starch, DNS reagent); assay type: biochemical; conditions: mean ± SD (n = 3)
Method: S1.3. Determination of α-amylase inhibitory activity
Phosphate buffer (20 mM, pH 6.9, containing 6 mM NaCl) was used as the […]
µL, 1%, w/v) were mixed and incubated in a 96-well microplate at 37 °C for 10 min.
Then, α-amylase solution (50 µL, 0.2 U/mL) was added and the compound was incubated at 37 °C for an additional 10 min. The reaction was stopped by addition of […]
microplate was immediately heated in 95 °C water bath for 10 min. When the reaction solution cooled to room temperature, allsamples were diluted by adding distilled water (50 µL), and then their absorbance was measured using a microplate reader at […]
starch solution) at 540 nm, thus the inhibitory activity was calculated as (Acontrol-Asample)/Acontrol×100%, in which Asample was the absorbance of the sample and Acontrol was the absorbance of the phosphate buffer control without test samples. Acarbose was used as the positive control.

[1] = ABTS radical scavenging assay; conditions: mean ± SD (n = 3)
[2] = molecular target: fatty acid synthase (FAS) (Gallus gallus, UniProt P12276); experiment: FAS inhibitory activity assay (NADPH absorbance at 340 nm)
Method: Determination of FAS inhibitory activity
diluted with potassium phosphate buffer (0.1 M, pH 7.0). Sample solution (100 L, 20-2000 μM, 37 °C) and FAS substrates (1.8 mL, 37 °C) were mixed in a cuvette, and then FAS solution (100 L, 37 °C, isolated from chicken liver and kept in ice-bath before use) was added. The absorbance of reaction compound was monitored by a
UV-vis spectrophotometer at 340 nm in 1 min. The inhibitory effect was calculated by the following equation: FAS inhibition (%) = (Acontrol- Asample)/Acontrol×100%, where Acontrolrepresented the FAS activity in the control group (phosphate buffer instead of sample solution), Asamplerepresented the FAS activity in the sample groups. The FAS activity was calculated as (A0 - A1)/1 min, in which A0 was the absorbance of the
reaction compound when the FAS was added, and A1 was the absorbance of the
reaction compound after reaction 1 min. Orlistat was used as the positive control.
FAS substrates: 0.1 M potassium phosphate buffer (pH 7.0), 1 mM ethylene-diaminetetraacetic acid (EDTA), 1 mM dithiothreitol, 3 M acetyl-coenzyme A, 10 M methylmalonyl coenzyme A, 35 M NADPH.

[3] = DPPH radical scavenging assay; conditions: mean ± SD (n = 3), NA = no activity
Method: S1.4. DPPH radical scavenging assay
The DPPH radical scavenging assay was used to evaluate the antioxidant activity of compounds 1-10. In a 96-well microplate, 100 µL of DPPH solution (200 µM in ethanol) was added to 100 µL sample in ethanol at graded concentrations ranging from 7 to 500 µM. The compound was incubated in the dark at room temperature for […]

α-glucosidase = α-glucosidase inhibitory activity assay (pNPG substrate); assay type: biochemical, yeast; conditions: for α-Glucosidase Inhibition at 0.1 mM: mean ± SD (n = 3), NA = no activity; for α-glucosidase inhibitory activity (in words): compared with positive control acarbose
Method: S1. Determination of bioactivities […]
S1.2. Determination of α-glucosidase inhibitory activity […]
diluted with phosphate buffer (0.1 M, pH 6.8). […]
and 4-nitrophenyl α-D-glucopyranoside (pNPG) solution (50 µL, 5 mM) were mixed
(1 picture or pasted object on this page, not shown here) […]
and incubated in a 96-well microplate at37 °C for 5 min. α-Glucosidase from yeast (50 µL, 0.2 U/mL) was added and incubated at 37 °C for another 30 min. Finally, 50 µL of Na2CO3 (1M) was added to terminate the reaction. The absorbance of compound was measured using a microplate reader at a wavelength 405 nm. The background absorbance (phosphate buffer instead of substrate pNPG) of all samples […]
calculated by the following equation: α-glucosidase inhibition (%) = (Acontrol-Asample)/Acontrol×100%, where Acontrolrepresented the absorbance of phosphate buffer control without testsamples, Asample represented the absorbance of test samples.
Acarbose was used as the positive control. […]

Sequence of fatty acid synthase (FAS) (P12276 2-2512 limits assumed): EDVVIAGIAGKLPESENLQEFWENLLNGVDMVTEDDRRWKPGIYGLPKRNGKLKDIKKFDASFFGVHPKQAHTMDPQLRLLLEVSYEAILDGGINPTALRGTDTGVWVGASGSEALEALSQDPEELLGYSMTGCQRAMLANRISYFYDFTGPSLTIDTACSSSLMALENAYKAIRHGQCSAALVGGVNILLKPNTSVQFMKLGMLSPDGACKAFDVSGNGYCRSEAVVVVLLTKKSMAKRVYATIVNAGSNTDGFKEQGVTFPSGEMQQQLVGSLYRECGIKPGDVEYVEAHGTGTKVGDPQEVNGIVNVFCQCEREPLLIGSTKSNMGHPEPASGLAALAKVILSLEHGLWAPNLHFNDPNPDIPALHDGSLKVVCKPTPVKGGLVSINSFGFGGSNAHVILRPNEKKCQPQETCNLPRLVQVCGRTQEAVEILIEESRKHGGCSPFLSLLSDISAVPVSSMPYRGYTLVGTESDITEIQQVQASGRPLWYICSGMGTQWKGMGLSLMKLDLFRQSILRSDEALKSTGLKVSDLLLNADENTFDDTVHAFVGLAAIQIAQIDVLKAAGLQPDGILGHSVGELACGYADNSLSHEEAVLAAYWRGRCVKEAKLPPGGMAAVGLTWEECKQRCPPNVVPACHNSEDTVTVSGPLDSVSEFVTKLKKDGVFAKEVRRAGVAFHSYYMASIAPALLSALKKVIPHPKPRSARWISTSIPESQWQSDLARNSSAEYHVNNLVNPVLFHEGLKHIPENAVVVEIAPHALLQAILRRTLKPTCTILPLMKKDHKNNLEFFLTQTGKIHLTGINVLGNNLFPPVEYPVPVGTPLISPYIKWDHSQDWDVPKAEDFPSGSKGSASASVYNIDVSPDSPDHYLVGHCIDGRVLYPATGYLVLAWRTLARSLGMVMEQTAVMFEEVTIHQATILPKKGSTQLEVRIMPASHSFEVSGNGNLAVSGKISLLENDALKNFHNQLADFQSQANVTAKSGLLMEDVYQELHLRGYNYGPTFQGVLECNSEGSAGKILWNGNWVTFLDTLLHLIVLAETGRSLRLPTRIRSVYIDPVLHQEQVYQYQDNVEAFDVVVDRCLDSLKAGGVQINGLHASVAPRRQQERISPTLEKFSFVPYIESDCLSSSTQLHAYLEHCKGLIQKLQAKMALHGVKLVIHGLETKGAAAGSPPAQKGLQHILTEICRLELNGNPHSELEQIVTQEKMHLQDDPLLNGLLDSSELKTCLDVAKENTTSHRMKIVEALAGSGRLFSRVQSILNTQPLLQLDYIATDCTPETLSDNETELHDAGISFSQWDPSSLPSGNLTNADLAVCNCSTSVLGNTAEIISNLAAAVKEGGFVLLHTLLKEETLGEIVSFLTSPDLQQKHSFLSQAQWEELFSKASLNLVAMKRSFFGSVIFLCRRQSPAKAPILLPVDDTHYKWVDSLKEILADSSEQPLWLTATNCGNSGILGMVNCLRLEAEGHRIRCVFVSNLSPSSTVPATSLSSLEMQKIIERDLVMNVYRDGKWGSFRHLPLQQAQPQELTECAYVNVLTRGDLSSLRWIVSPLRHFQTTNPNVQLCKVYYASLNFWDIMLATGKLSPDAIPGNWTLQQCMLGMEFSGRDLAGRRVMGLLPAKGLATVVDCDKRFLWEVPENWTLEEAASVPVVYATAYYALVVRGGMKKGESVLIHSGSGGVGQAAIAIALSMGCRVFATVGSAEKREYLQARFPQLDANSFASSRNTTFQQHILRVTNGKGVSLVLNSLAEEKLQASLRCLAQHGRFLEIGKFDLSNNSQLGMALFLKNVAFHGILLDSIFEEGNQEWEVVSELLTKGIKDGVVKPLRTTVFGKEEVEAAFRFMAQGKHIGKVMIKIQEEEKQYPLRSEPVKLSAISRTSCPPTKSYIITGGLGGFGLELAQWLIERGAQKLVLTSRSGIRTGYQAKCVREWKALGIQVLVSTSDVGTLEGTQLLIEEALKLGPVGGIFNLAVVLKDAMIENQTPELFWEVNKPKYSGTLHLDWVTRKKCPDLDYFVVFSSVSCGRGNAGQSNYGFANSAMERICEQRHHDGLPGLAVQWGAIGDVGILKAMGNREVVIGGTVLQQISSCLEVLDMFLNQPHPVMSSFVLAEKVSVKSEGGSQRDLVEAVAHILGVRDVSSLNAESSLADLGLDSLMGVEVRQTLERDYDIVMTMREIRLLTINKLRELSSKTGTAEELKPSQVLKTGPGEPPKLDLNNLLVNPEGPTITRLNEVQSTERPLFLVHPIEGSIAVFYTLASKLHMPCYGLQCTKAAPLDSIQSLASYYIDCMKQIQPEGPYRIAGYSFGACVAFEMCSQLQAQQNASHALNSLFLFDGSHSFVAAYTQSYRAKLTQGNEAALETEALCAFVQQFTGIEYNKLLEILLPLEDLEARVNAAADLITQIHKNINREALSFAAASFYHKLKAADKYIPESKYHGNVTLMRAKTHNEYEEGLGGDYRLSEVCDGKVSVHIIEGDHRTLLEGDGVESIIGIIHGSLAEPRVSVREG

Structure (SMILES) | α-Amylase Inhibition at 0.1 mM (α-amylase) | IC50 [1] | IC50 ([2]; read-out: FAS IC50, mean ± SD (n = 3), NA = no activity, FAS isolated from chicken liver) | IC50 [3] | IC50 [2] | α-Glucosidase Inhibition at 0.1 mM (α-glucosidase) | α-glucosidase inhibitory activity (in words) (α-glucosidase)
CC/C=C/CCO[C@@H]1O[C@H](COC(=O)C=Cc2ccc(O)cc2)[C@@H](O)[C@H](O[C@@H]2O[C@@H](C)[C@H](O)[C@@H](O)[C@H]2O)[C@H]1O [Compound 1] | 27.9 ± 6.4 bc % | 5.65 ± 0.19 µM | – | – | – | – | –
C=C(C)CO[C@@H]1O[C@H](COC(=O)C=Cc2ccc(O)cc2)[C@@H](O)[C@H](O[C@@H]2O[C@@H](C)[C@H](O)[C@@H](O)[C@H]2O)[C@H]1O [Compound 2] | 24.0 ± 1.5 bc % | 103 ± 4 µM | 4.1 ± 0.12 µM | – | – | – | –
C[C@@H]1O[C@@H](O[C@H]2[C@H](O)[C@@H](COC(=O)C=Cc3ccc(O)cc3)OC(O)[C@@H]2O)[C@H](O)[C@H](O)[C@H]1O (some centres unmarked) [Compound 3] | 29.8 ± 1.8 bc % | 12.04 ± 0.08 µM | – | > 250 µM | 6.25 ± 0.2 µM | – | –
CC1OC(OC2C(O)C(O)OC(CO)C2OC(=O)C=Cc2ccc(O)cc2)C(O)C(O)C1O (centres unmarked) [Compound 4] | 25.6 ± 1.0 bc % | 11.2 ± 0.4 µM | – | – | 10.5 ± 0.32 µM | – | –
C[C@@H]1O[C@@H](O[C@@H]2[C@@H](O)[C@@H](O)[C@H](O[C@H]3[C@H](O)[C@@H](COC(=O)C=Cc4ccc(O)cc4)OC(O)[C@@H]3O)O[C@H]2C)[C@H](O)[C@H](O)[C@H]1O (some centres unmarked) [Compound 5] | 26.5 ± 4.0 bc % | 15.5 ± 0.36 µM | – | > 250 µM | 9.75 ± 0.24 µM | – | –
C[C@@H]1O[C@@H](O[C@H]2[C@H](OC(=O)/C=C/c3ccc(O)c(O)c3)[C@@H](CO)OC(O)[C@@H]2O)[C@H](O)[C@H](O)[C@H]1O (stereo partly drawn) [Compound 6, 3-O-(α-L-rhamnopyranosyl)-4-O-(trans-caffeoyl)-D-glucopyranose] | 23.0 ± 0.7 c % | 17 ± 0.45 µM | – | 46.7 ± 1.58 µM | – | – | –
O=c1c(O[C@@H]2O[C@H](CO)[C@@H](O)[C@H](O)[C@H]2O)c(-c2ccc(O)cc2)oc2cc(O[C@@H]3O[C@H](CO)[C@@H](O)[C@H](O)[C@H]3O)cc(O)c12 [Compound 7, kaempferol 3,7-diglucoside] | 31.8 ± 0.5 b % | 9.34 ± 0.04 µM | – | – | 8.1 ± 0.37 µM | 15.6 ± 0.9 c % | moderate and weaker than acarbose
COc1cc([C@H]2c3cc(O[C@@H]4O[C@H](CO)[C@@H](O)[C@H](O)[C@H]4O)c(OC)cc3C[C@@](O)(CO)[C@@H]2CO)ccc1O [Compound 8, (+)-cycloolivil 6-O-β-D-glucopyranoside] | 28.5 ± 2.7 bc % | 29.1 ± 1.11 µM | – | > 250 µM | 8.01 ± 0.26 µM | – | –
COC(=O)C=Cc1ccc(O)cc1 [Compound 9] | 29.5 ± 0.6 bc % | 8.78 ± 0.09 µM | – | > 250 µM | 15.4 ± 0.42 µM | 33.8 ± 2.9 b % | moderate and weaker than acarbose
OCCc1ccc(O)cc1 [Compound 10, 4-hydroxyphenylethanol] | 16.2 ± 5.0 d % | 3.41 ± 0.08 µM | – | – | – | – | –
O=C1O[C@H]([C@@H](O)CO)C(O)=C1O [L-(+)-ascorbic acid, reference compound] | – | 10.1 ± 0.19 µM | – | 13.66 ± 0.13 µM | – | – | –
